Data set [1] can be described thus: Metabolic stability in human liver microsomes assessed as intrinsic clearance measured per mg of protein in presence of NADPH measured upto 60 mins in presence of 2 uM ketoconazole by LC-MS/MS analysis. It counts as ADME, Microsome. The settings on record: 1 h.
The nature of data set [2]: Stability in human plasma assessed as half life at pH 7.4 measured upto 5 hrs by LC-MS/MS analysis. It counts as ADME, cell-free.
Data set [3] is described as follows: Metabolic stability in human liver microsomes assessed as half life in presence of NADPH measured upto 60 mins by LC-MS/MS analysis. It counts as ADME, Microsome.
Data set [4] in a line: Metabolic stability in human liver microsomes assessed as intrinsic clearance measured per mg of protein in presence of NADPH measured upto 60 mins in presence of 50 uM furafylline by LC-MS/MS analysis. The settings on record: 1 h. It counts as ADME, Microsome.
A short description of data set [5]: Metabolic stability in human liver microsomes assessed as intrinsic clearance measured per mg of protein in presence of NADPH measured upto 60 mins in presence of 10 uM sulfaphenazole by LC-MS/MS analysis. The settings on record: 1 h. It counts as ADME, Microsome.
Data set [6] can be described thus: Metabolic stability in human liver microsomes assessed as intrinsic clearance measured per mg of protein in presence of NADPH measured upto 60 mins in presence of 10 uM montelukast by LC-MS/MS analysis. It counts as ADME, Microsome. The settings on record: 1 h.
Data set [7] can be described thus: Metabolic stability in human liver microsomes assessed as half life in presence of NADPH measured upto 60 mins in presence of 2.5 mM ABT cytochrome P450 inhibitor by LC-MS/MS analysis. It counts as ADME, Microsome. The settings on record: with ABT (cytochrome P450 inhibitor).
The nature of data set [8]: Metabolic stability in human liver microsomes assessed as half life in presence of NADPH measured upto 60 mins in presence of 10 uM montelukast by LC-MS/MS analysis. It counts as ADME, Microsome. The settings on record: with montelukast.
Data set [9] can be described thus: Metabolic stability in human liver microsomes assessed as half life in presence of NADPH measured upto 60 mins in presence of 2 uM ketoconazole by LC-MS/MS analysis. It counts as ADME, Microsome. The settings on record: with ketoconazole.
Data set [10] can be described thus: Metabolic stability in human liver microsomes assessed as intrinsic clearance measured per mg of protein in presence of NADPH measured upto 60 mins in presence of 8 uM quinidine by LC-MS/MS analysis. It counts as ADME, Microsome. The settings on record: 1 h.
Data set [11] can be described thus: Metabolic stability in human liver microsomes assessed as half life in presence of NADPH measured upto 60 mins in presence of 10 uM sulfaphenazole by LC-MS/MS analysis. It counts as ADME, Microsome. The settings on record: with sulfaphenazole.
Data set [12] in a line: Ratio of half life in human liver microsomes in presence of BNPP to t1/2 in human liver microsomes absence of BNPP. It counts as ADME, Microsome.
The nature of data set [13]: Metabolic stability in human liver microsomes assessed as half life in presence of NADPH measured upto 60 mins in presence of 50 uM furafylline by LC-MS/MS analysis. It counts as ADME, Microsome. The settings on record: with furafylline.
A short description of data set [14]: Metabolic stability in human liver microsomes assessed as intrinsic clearance measured per mg of protein in presence of NADPH measured upto 60 mins in presence of 2 uM ticlopidine by LC-MS/MS analysis. The settings on record: 1 h. It counts as ADME, Microsome.
Data set [15] can be described thus: Metabolic stability in human liver microsomes assessed as half life in presence of NADPH measured upto 60 mins in presence of 5 mM BNPP carboxylesterase inhibitor by LC-MS/MS analysis. It counts as ADME, Microsome. The settings on record: with BNPP (carboxylesterase inhibitor).
A short description of data set [16]: Ratio of half life in human liver microsomes in presence of ABT to t1/2 in human liver microsomes absence of ABT. It counts as ADME, Microsome.
A short description of data set [17]: Metabolic stability in human liver microsomes assessed as half life in presence of NADPH measured upto 60 mins in presence of 8 uM quinidine by LC-MS/MS analysis. It counts as ADME, Microsome. The settings on record: with quinidine.
Data set [18] in a line: Metabolic stability in human liver microsomes assessed as half life in presence of NADPH measured upto 60 mins in presence of 2 uM ticlopidine by LC-MS/MS analysis. It counts as ADME, Microsome. The settings on record: with ticlopidine.

Where only a bound is given, the exact number is not on record here.

For `CC(=O)NCSCCCCCCC(=O)Nc1nc(-c2ccc(F)cc2)cs1`, the CLint in data set [1] came to 93 µL/min/mg; in [4], 253 µL/min/mg; in data set [5], 218 µL/min/mg; in data set [6], 150 µL/min/mg; in [10], 243 µL/min/mg; in data set [14], 260 µL/min/mg. Besides, the half-life was more than 300 min in data set [2]; 6.81 min in [3]; 65.8 min in data set [7]; 14 min in data set [8]; 22.5 min in [9]; 9.66 min in data set [11]. In addition, the half-life in data set [13] was found to be 8.31 min; in [15] it was 81.4 min; in data set [17], 8.68 min; in data set [18], 8.09 min. The Ratio stood at 9.53 in data set [12] and 7.71 in [16].
As for `CCC(=O)SCCCCCCC(=O)Nc1nc(-c2ccc(F)cc2)cs1`, the half-life was 160 min in data set [2], 1.17 min in [3], 0.56 min in data set [7] and 9.11 min in [15]. Moreover, the Ratio in data set [12] is recorded as 7.77; in [16], 0.48.
As for `O=C(CCCCCCSP(=O)(c1ccccc1)c1ccccc1)Nc1nc(-c2ccc(F)cc2)cs1`, the half-life is more than 300 min in data set [2], 0.92 min in data set [3], 34.2 min in [7] and 24.5 min in data set [15]. Moreover, the Ratio in data set [12] was determined as 26.7; in [16], 37.24.
As to `O=C(CCCCCCSC(=O)c1ccc(C(F)(F)F)cc1)Nc1nc(-c2ccc(F)cc2)cs1`, the half-life was more than 300 min in data set [2], 5.77 min in data set [3], 3.82 min in data set [7] and 14.5 min in data set [15]. For the same molecule, the Ratio in [12] is given as 2.52; in [16] it was 0.66.
On to `CC(C)(C)C(=O)NCSCCCCCCC(=O)Nc1nc(-c2ccc(F)cc2)cs1`, for which the CLint in data set [1] worked out at 74 µL/min/mg; in data set [4], 1490 µL/min/mg; in data set [5] it was 1490 µL/min/mg; in data set [6], 1140 µL/min/mg; in data set [10], 1470 µL/min/mg; in [14], 1520 µL/min/mg. Moreover, the half-life was more than 300 min in [2]; 1.75 min in [3]; 211 min in data set [7]; 1.84 min in data set [8]; 28.5 min in data set [9]; 1.41 min in [11]. Also, the half-life in data set [13] is 1.41 min; in data set [15], 27.6 min; in data set [17], 1.43 min; in [18] it was 1.38 min. Moreover, the results for the Ratio in [12] and in [16] were 13.27 and 101.23, respectively.
For the molecule `O=C(CCCCCCSC(=O)N1CCCC1)Nc1nc(-c2ccc(F)cc2)cs1`, the half-life in data set [2] was more than 300 min; in data set [3], 11.4 min.
Consider `COc1ccc(C(=O)SCCCCCCC(=O)Nc2nc(-c3ccc(F)cc3)cs2)cc1`, for which the values for the half-life in [2] and in data set [3] were more than 300 min and 10.8 min, respectively.
For `CCCCCCSSCCCCCCC(=O)Nc1nc(-c2ccc(F)cc2)cs1` the same measures were more than 300 min and 11.9 min.
Consider `COP(=O)(OC)SCCCCCCC(=O)Nc1nc(-c2ccc(F)cc2)cs1`, for which the half-life in data set [2] was more than 300 min; in data set [3] it was 9.85 min; in data set [7], 44 min; in data set [15], 165 min. Further, the Ratio in [12] stood at 16.8; in data set [16], 4.46.
For the molecule `CCCCC(=O)SCCCCCCC(=O)Nc1nc(-c2ccc(F)cc2)cs1`, the half-life in data set [2] is 179 min.
On to `CC(C)(C)SSCCCCCCC(=O)Nc1nc(-c2ccc(F)cc2)cs1`, for which the half-life in data set [2] is more than 300 min; in [3], 12.5 min; in data set [7] it was 26.7 min; in [15] it was 15.8 min. The Ratio in data set [12] was 1.26; in data set [16], 2.13.
Consider `O=C(CCCCCCSSCCCCCCC(=O)Nc1nc(-c2ccc(F)cc2)cs1)Nc1nc(-c2ccc(F)cc2)cs1`, for which the half-life in data set [2] is 247 min.
As to `O=C(CCCCCCSSC1CCCCC1)Nc1nc(-c2ccc(F)cc2)cs1`, the half-life was more than 300 min in data set [2] and 18.9 min in data set [3].
As for `CCCCCNC(=O)SCCCCCCC(=O)Nc1nc(-c2ccc(F)cc2)cs1`, the half-life was more than 300 min in data set [2] and 5.5 min in data set [3].
As to `CC(=O)SCCCCCCC(=O)Nc1nc(-c2ccc(F)cc2)cs1`, the half-life is 151 min in data set [2], 0.57 min in data set [3], 0.53 min in data set [7] and 5.78 min in data set [15]. The Ratio in data set [12] was 10.1; in [16] it was 0.93.
In the case of `CC(C)(C)C(=O)SCCCCCCC(=O)Nc1nc(-c2ccc(F)cc2)cs1`, the half-life in data set [2] was more than 300 min; in data set [3], 4.11 min.
Consider `CN(C)C(=O)SCCCCCCC(=O)Nc1nc(-c2ccc(F)cc2)cs1`, for which the CLint was 351 µL/min/mg in [1]; 708 µL/min/mg in [4]; 716 µL/min/mg in [5]; 365 µL/min/mg in data set [6]; 675 µL/min/mg in data set [10]; 737 µL/min/mg in [14]. Besides, the half-life was more than 300 min in [2]; 3.09 min in data set [3]; 114 min in [7]; 5.76 min in data set [8]; 5.99 min in data set [9]; 2.94 min in [11]. In addition, the half-life in data set [13] came to 2.98 min; in [15], 22.8 min; in data set [17], 3.11 min; in [18], 2.85 min. Moreover, the Ratio in [12] is listed as 5.32; in data set [16], 26.54.
Consider `CC(C)N(C(=O)SCCCCCCC(=O)Nc1nc(-c2ccc(F)cc2)cs1)C(C)C`, for which the CLint in [1] worked out at 67 µL/min/mg; in data set [4], 1380 µL/min/mg; in [5] it was 1370 µL/min/mg; in data set [6] it was 1680 µL/min/mg; in data set [10] it was 1840 µL/min/mg; in data set [14] it was 1520 µL/min/mg. The half-life in [2] is more than 300 min; in data set [3], 1.27 min; in data set [7], 81.1 min; in [8], 1.25 min; in data set [9], 31.5 min; in data set [11], 1.53 min. Further, the half-life stood at 1.52 min in data set [13], 17.1 min in data set [15], 1.15 min in data set [17] and 1.39 min in [18]. Further, the figures for the Ratio in [12] and in data set [16] were 2.03 and 9.6, respectively.
Take `O=C(CCCCCCSC(=O)c1ccccc1)Nc1nc(-c2ccc(F)cc2)cs1`: the half-life in data set [2] is more than 300 min; in [3], 2.34 min; in data set [7], 5.78 min; in [15] it was 36.3 min. Also, the Ratio stood at 4.63 in data set [12] and 0.74 in data set [16].
Consider `COC(=O)SCCCCCCC(=O)Nc1nc(-c2ccc(F)cc2)cs1`, for which the half-life in data set [2] is more than 300 min; in [3] it was 0.79 min; in data set [7], 0.85 min; in data set [15] it was 28.2 min. For the same molecule, the Ratio in data set [12] is given as 35.87; in data set [16], 1.09.
Regarding `O=C(CCCCCCSC(=O)Cc1ccccc1)Nc1nc(-c2ccc(F)cc2)cs1`, the values for the half-life in [2] and in [3] were more than 160 min and 2.14 min, respectively.
In the case of `CCCCSSCCCCCCC(=O)Nc1nc(-c2ccc(F)cc2)cs1`, the half-life in data set [2] was more than 300 min; in [3], 6.08 min; in data set [7] it was 16.9 min; in data set [15], 10.1 min. In addition, the Ratio was 1.66 in data set [12] and 2.78 in data set [16].
In the case of `CCOP(=O)(OCC)SCCCCCCC(=O)Nc1nc(-c2ccc(F)cc2)cs1`, the half-life is more than 300 min in [2], 2.14 min in data set [3], 24.5 min in data set [7] and 54.5 min in [15]. In addition, the Ratio in [12] was 18.22; in data set [16], 8.2.
In the case of `O=C(CCCCCCSC(=O)c1ccc2c(c1)OCCO2)Nc1nc(-c2ccc(F)cc2)cs1`, the half-life is more than 300 min in data set [2] and 11.4 min in data set [3].

These data come from ChEMBL document CHEMBL6114955, “Probing into the plasma stability and microsomal stability of thiol-based prodrug derivatives: Using IYS-15, an HDAC inhibitor as the model thiol” (Bioorg Med Chem, 2025).
